Reference: US20250099431A1, “GLP-1R MODULATING COMPOUNDS” (priority 2020, published 2025)

Experiments:
[1] = Microsomal stability (liver microsomal assay, mixed cofactors); predicted hepatic clearance; format: in vitro ADME; conditions: liver microsomes 1.0 mg protein/mL (+UDPGA +NADPH), 1 μM analyte, 37° C.; scaled with human liver weight and hepatic blood flow 1.3 L/hr/kg
How it was run: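 Compound at 1 μM with human or rat pooled liver microsomes, alamethicin-treated, pH 7.4 phosphate, NADPH-regenerating plus UDPGA cofactors, 37° C, sampled 0–70 min. Parent/internal standard ratio by RapidFire QToF MS; half-life from initial log-linear decay, scaled to intrinsic and predicted hepatic clearance and hepatic extraction.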

GLP-1R = GLP-1R (Homo sapiens (Human), UniProt P43220); test: GLP-1R activation: cAMP increase in CHO cells stably expressing GLP-1R; format: cell-based; conditions: cAMP increase, 10 point dose response, 30 minutes incubation at 37° C., read-out: EC50
Chain of GLP-1R (P43220 24-463): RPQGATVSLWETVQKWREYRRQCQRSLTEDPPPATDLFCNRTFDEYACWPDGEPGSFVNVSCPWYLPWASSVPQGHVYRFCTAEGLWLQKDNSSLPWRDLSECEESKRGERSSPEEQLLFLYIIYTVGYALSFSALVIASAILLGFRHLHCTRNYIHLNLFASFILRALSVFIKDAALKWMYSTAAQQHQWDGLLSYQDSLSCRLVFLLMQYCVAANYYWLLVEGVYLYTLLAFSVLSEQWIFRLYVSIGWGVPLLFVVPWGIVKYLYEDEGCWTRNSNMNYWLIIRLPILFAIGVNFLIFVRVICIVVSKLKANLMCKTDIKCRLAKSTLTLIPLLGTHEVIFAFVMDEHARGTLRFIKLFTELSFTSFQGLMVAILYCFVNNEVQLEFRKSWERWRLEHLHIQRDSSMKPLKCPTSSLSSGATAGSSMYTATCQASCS
How it was run: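 CHO cells stably expressing GLP-1R were incubated 1 h at 37 °C in medium with 1% BSA, then exposed to compound in a 10-point dose response for 30 min at 37 °C. cAMP rise was detected by HTRF (Gs Dynamic kit). EC50 came from a sigmoidal fit of response against log agonist concentration.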

Row | SMILES | Predicted Hepatic Clearance (Pred. Cl.) [1] [mL/min/kg] | EC50 (GLP-1R) [nM]
1 | COCCn1c(Cc2c(F)cc(-c3cccc4c3OC(C)(c3ccc(Cl)cn3)O4)cc2F)nc2ccc(C(=O)O)cc21 (centres unmarked) [Example 64, 2-(4-(2-(5-chloropyridin-2-yl)-2-methylbenzo[d][1, 3]dioxol-4-yl)-2,6-difluorobenzyl)-1-(2-methoxyethyl)-1H-benzo[d]imidazole-6-carboxylic acid] | 3.67 | 111
2 | COCCn1c(Cc2c(F)cc(-c3cccc4c3OC(C)(c3ccc(Cl)cn3)O4)cc2F)nc2ccc(C(=O)O)cc21 (centres unmarked) [Example 65, 2-(4-(2-(5-chloropyridin-2-yl)-2-methylbenzo[d][1, 3]dioxol-4-yl)-2,6-difluorobenzyl)-1-(2-methoxyethyl)-1H-benzo[d]imidazole-6-carboxylic acid] | 3.3 | 10
3 | COCCn1c(Cc2c(F)cc(-c3cccc4c3OC(C)(c3ccc(C#N)cn3)O4)cc2F)nc2ccc(C(=O)O)cc21 (centres unmarked) [Example 66, 2-(4-(2-(5-cyanopyridin-2-yl)-2-methylbenzo[d][1, 3]dioxol-4-yl)-2,6-difluorobenzyl)-1-(2-methoxyethyl)-1H-benzo[d]imidazole-6-carboxylic acid] | 7.17 | 21
4 | COCCn1c(Cc2c(F)cc(-c3cccc4c3OC(C)(c3ccc(C(N)=O)cn3)O4)cc2F)nc2ccc(C(=O)O)cc21 (centres unmarked) [Example 67, 2-(4-(2-(5-carbamoylpyridin-2-yl)-2-methylbenzo[d][1, 3]dioxol-4-yl)-2,6-difluorobenzyl)-1-(2-methoxyethyl)-1H-benzo[d]imidazole-6-carboxylic acid] | 7.17 | 20
5 | CCn1cnnc1Cn1c(Cc2c(F)cc(-c3cccc4c3OC(C)(c3ccc(Cl)cc3F)O4)cc2F)nc2ccc(C(=O)O)cc21 (centres unmarked) [Example 68, 2-(4-(2-(4-chloro-2-fluorophenyl)-2-methylbenzo[d][1, 3]dioxol-4-yl)-2,6-difluorobenzyl)-1-((4-ethyl-4H-1,2,4-triazol-3-yl)methyl)-1H-benzo[d]imidazole-6-carboxylic acid] | 2.83 | 12
6 | CC1(c2ccc(Cl)cc2F)Oc2cccc(-c3cc(F)c(Cc4nc5ccc(C(=O)O)cc5n4Cc4ncco4)c(F)c3)c2O1 (centres unmarked) [Example 69, 2-(4-(2-(4-chloro-2-fluorophenyl)-2-methylbenzo[d][1, 3]dioxol-4-yl)-2,6-difluorobenzyl)-1-(oxazol-2-ylmethyl)-1H-benzo[d]imidazole-6-carboxylic acid] | 2.5 | 2.5
7 | CC1(c2ccc(Cl)cn2)Oc2cccc(-c3cc(F)c(Cc4nc5ccc(C(=O)O)cc5n4C[C@@H]4CCO4)c(F)c3F)c2O1 (stereo partly drawn) [Example 70, 2-(4-(2-(5-chloropyridin-2-yl)-2-methylbenzo[d][1, 3]dioxol-4-yl)-2,3,6-trifluorobenzyl)-1-(((S)-oxetan-2-yl)methyl)-1H-benzo[d]imidazole-6-carboxylic acid] | 3.5 | 0.78
8 | O=C(O)c1ccc2nc(Cc3c(F)cc(-c4cccc5c4CN(c4ccc(Cl)cc4F)C5)cc3F)n(C[C@@H]3CCO3)c2c1 [Example 71, (S)-2-(4-(2-(4-chloro-2-fluorophenyl)isoindolin-4-yl)-2,6-difluorobenzyl)-1-(oxetan-2-ylmethyl)-1H-benzo[d]imidazole-6-carboxylic acid] | 3.83 | 10000
9 | COCCn1c(Cc2ccc(-c3cccc4c3OC(C)(c3ccc(Cl)cc3F)O4)cc2F)nc2ccc(C(=O)O)cc21 (centres unmarked) [Example 80, 2-(4-(2-(4-chloro-2-fluorophenyl)-2-methylbenzo[d][1, 3]dioxol-4-yl)-2-fluorobenzyl)-1-(2-methoxyethyl)-1H-benzo[d]imidazole-6-carboxylic acid] | 4 | 11
10 | CC1(c2ccc(Cl)cc2F)Oc2cccc(-c3cc(F)c(Cc4nc5ccc(C(=O)O)cc5n4CCOC(F)F)c(F)c3)c2O1 (centres unmarked) [Example 83, 2-(4-(2-(4-chloro-2-fluorophenyl)-2-methylbenzo[d][1, 3]dioxol-4-yl)-2,6-difluorobenzyl)-1-(2-(difluoromethoxy)ethyl)-1H-benzo[d]imidazole-6-carboxylic acid] | 3.3 | 13
11 | COCCn1c(Cc2ccc(-c3cccc4c3OC(C)(c3ccc(Cl)cc3F)O4)nc2OC)nc2ccc(C(=O)O)cc21 (centres unmarked) [Example 85, 2-((6-(2-(4-chloro-2-fluorophenyl)-2-methylbenzo[d][1, 3]dioxol-4-yl)-2-methoxypyridin-3-yl)methyl)-1-(2-methoxyethyl)-1H-benzo[d]imidazole-6-carboxylic acid] | 3 | 168
12 | COCCn1c(Cc2ccc(-c3cccc4c3OC(C)(c3ccc(Cl)cc3F)O4)[nH]c2=O)nc2ccc(C(=O)O)cc21 (centres unmarked) [Example 86, 2-((6-(2-(4-chloro-2-fluorophenyl)-2-methylbenzo[d][1, 3]dioxol-4-yl)-2-oxo-1,2-dihydropyridin-3-yl)methyl)-1-(2-methoxyethyl)-1H-benzo[d]imidazole-6-carboxylic acid] | 2 | 13

Next, values leading:

Row | Predicted Hepatic Clearance (Pred. Cl.) [1] [mL/min/kg] | EC50 (GLP-1R) [nM] | SMILES
13 | 3.67 | 10000 | O=C(O)c1ccc2nc(Cc3c(F)cc(-c4cccc5c4C(=O)N(c4ccc(Cl)cc4F)C5)cc3F)n(C[C@@H]3CCO3)c2c1 [Example 72, (S)-2-(4-(2-(4-chloro-2-fluorophenyl)-3-oxoisoindolin-4-yl)-2,6-difluorobenzyl)-1-(oxetan-2-ylmethyl)-1H-benzo[d]imidazole-6-carboxylic acid]
14 | 2.5 | 10000 | O=C(O)c1ccc2nc(Cc3c(F)cc(-c4cccc5c4CN(c4ccc(Cl)cc4F)C5=O)cc3F)n(C[C@@H]3CCO3)c2c1 [Example 73, (S)-2-(4-(2-(4-chloro-2-fluorophenyl)-1-oxoisoindolin-4-yl)-2,6-difluorobenzyl)-1-(oxetan-2-ylmethyl)-1H-benzo[d]imidazole-6-carboxylic acid]
15 | 7.67 | 1.7 | CC1(c2ccc(Cl)cn2)Oc2cccc(-c3cc(F)c(Cc4nc5ccc(C(=O)O)cc5n4C[C@@H]4CCO4)c(C#N)c3)c2O1 (stereo partly drawn) [Example 74, 2-(4-(2-(5-chloropyridin-2-yl)-2-methylbenzo[d][1, 3]dioxol-4-yl)-2-cyano-6-fluorobenzyl)-1-(((S)-oxetan-2-yl)methyl)-1H-benzo[d]imidazole-6-carboxylic acid]
16 | 4.83 | 0.7 | CC1(c2ccc(Cl)cc2F)Oc2cccc(-c3cc(F)c(Cc4nc5ccc(C(=O)O)nc5n4CC4(CC#N)CC4)cc3F)c2O1 (centres unmarked) [Example 75, 2-(4-(2-(4-chloro-2-fluorophenyl)-2-methylbenzo[d][1, 3]dioxol-4-yl)-2,5-difluorobenzyl)-3-((1-(cyanomethyl)cyclopropyl)methyl)-3H-imidazo[4,5-b]pyridine-5-carboxylic acid]
17 | 8 | 4.3 | CC1(c2ccc(Cl)cn2)Oc2ccc(F)c(-c3ccc(Cc4nc5ccc(C(=O)O)cc5n4C[C@@H]4CCO4)c(F)c3)c2O1 (stereo partly drawn) [Example 76, 2-(4-(2-(5-chloropyridin-2-yl)-5-fluoro-2-methylbenzo[d][1, 3]dioxol-4-yl)-2-fluorobenzyl)-1-(((S)-oxetan-2-yl)methyl)-1H-benzo[d]imidazole-6-carboxylic acid]
18 | 4.33 | 72 | CC1(c2ccc(Cl)cc2F)Oc2cccc(-c3ccc(Cc4nc5ccc(C(=O)O)cc5n4C[C@@H]4CCO4)cn3)c2O1 (stereo partly drawn) [Example 77, 2-((6-(2-(4-chloro-2-fluorophenyl)-2-methylbenzo[d][1, 3]dioxol-4-yl)pyridin-3-yl)methyl)-1-(((S)-oxetan-2-yl)methyl)-1H-benzo[d]imidazole-6-carboxylic acid]
19 | 7.17 | 1780 | COCCn1c(Cc2ccc(-c3cccc4c3OC(c3ccc(Cl)cn3)C4)cc2F)nc2ccc(C(=O)O)cc21 (centres unmarked) [Example 78, 2-(4-(2-(5-chloropyridin-2-yl)-2,3-dihydrobenzofuran-7-yl)-2-fluorobenzyl)-1-(2-methoxyethyl)-1H-benzo[d]imidazole-6-carboxylic acid]
20 | 2.33 | 738 | COCCn1c(Cc2ccc(-c3cccc4c3OC(c3ccc(Cl)cc3F)C4)cc2F)nc2ccc(C(=O)O)cc21 (centres unmarked) [Example 79, 2-(4-(2-(4-chloro-2-fluorophenyl)-2,3-dihydrobenzofuran-7-yl)-2-fluorobenzyl)-1-(2-methoxyethyl)-1H-benzo[d]imidazole-6-carboxylic acid]
21 | 8.67 | 26 | COCCn1c(Cc2cc(F)c(-c3cccc4c3OC(C)(c3ccc(C#N)cc3F)O4)cc2F)nc2ccc(C(=O)O)cc21 (centres unmarked) [Example 81, 2-(4-(2-(4-cyano-2-fluorophenyl)-2-methylbenzo[d][1, 3]dioxol-4-yl)-2,5-difluorobenzyl)-1-(2-methoxyethyl)-1H-benzo[d]imidazole-6-carboxylic acid]
22 | 2.83 | 49 | COCCn1c(Cc2cc(F)c(-c3cccc4c3OC(C)(c3ccc(Cl)cc3F)O4)cc2F)nc2ccc(-c3nn[nH]n3)cc21 (centres unmarked) [Example 84, 2-(4-(2-(4-chloro-2-fluorophenyl)-2-methylbenzo[d][1, 3]dioxol-4-yl)-2,5-difluorobenzyl)-1-(2-methoxyethyl)-6-(2H-tetrazol-5-yl)-1H-benzo[d]imidazole]
